Source: ChEMBL document CHEMBL4130345, “Discovery of a series of dihydroquinoxalin-2(1H)-ones as selective BET inhibitors from a dual PLK1-BRD4 inhibitor” (Eur J Med Chem, 2017)
The source made the active and inactive calls. The rule behind the calls is not given here.

Columns and labels:
[1] = target: Histone acetyltransferase KAT2B (Homo sapiens) (UniProt Q92831); experiment: Inhibition of human partial length PCAF (G715 to D831 residues) expressed in Escherichia coli BL21 assessed as residual activity at 1 uM after 1 hr by qPCR method relative to control
[2] = target: ATPase family AAA domain-containing protein 2 (Homo sapiens) (UniProt Q6PL18); experiment: Inhibition of human partial length ATAD2A (Q981 to R1108 residues) expressed in Escherichia coli BL21 assessed as residual activity at 1 uM after 1 hr by qPCR method relative to control
[3] = target: Bromodomain and WD repeat-containing protein 1 (Homo sapiens) (UniProt Q9NSI6); experiment: Inhibition of human partial length BRWD1 (A1310 to E1430 residues) expressed in Escherichia coli BL21 assessed as residual activity at 1 uM after 1 hr by qPCR method relative to control
[4] = target: Bromodomain testis-specific protein (Homo sapiens) (UniProt Q58F21); experiment: Inhibition of human partial length BRDT bromodomain 1 (N21 to E137 residues) expressed in Escherichia coli BL21 assessed as residual activity at 1 uM after 1 hr by qPCR method relative to control
[5] = AUC (0 to infinity) in ICR (CD-1) mouse at 10 mg/kg, po; assay type: ADME, organism-based; parameters: dose 10 mg/kg, time infinity, route oral; details: in vivo
[6] = target: Transcription initiation factor TFIID subunit 1-like (Homo sapiens) (UniProt Q8IZX4); experiment: Inhibition of human partial length TAF1L bromodomain 2 (Q1523 to D1654 residues) expressed in Escherichia coli BL21 assessed as residual activity at 1 uM after 1 hr by qPCR method relative to control
Sequence of Transcription initiation factor TFIID subunit 1-like (Homo sapiens) (Q8IZX4 whole entry, the tested form may be a part, canonical isoform): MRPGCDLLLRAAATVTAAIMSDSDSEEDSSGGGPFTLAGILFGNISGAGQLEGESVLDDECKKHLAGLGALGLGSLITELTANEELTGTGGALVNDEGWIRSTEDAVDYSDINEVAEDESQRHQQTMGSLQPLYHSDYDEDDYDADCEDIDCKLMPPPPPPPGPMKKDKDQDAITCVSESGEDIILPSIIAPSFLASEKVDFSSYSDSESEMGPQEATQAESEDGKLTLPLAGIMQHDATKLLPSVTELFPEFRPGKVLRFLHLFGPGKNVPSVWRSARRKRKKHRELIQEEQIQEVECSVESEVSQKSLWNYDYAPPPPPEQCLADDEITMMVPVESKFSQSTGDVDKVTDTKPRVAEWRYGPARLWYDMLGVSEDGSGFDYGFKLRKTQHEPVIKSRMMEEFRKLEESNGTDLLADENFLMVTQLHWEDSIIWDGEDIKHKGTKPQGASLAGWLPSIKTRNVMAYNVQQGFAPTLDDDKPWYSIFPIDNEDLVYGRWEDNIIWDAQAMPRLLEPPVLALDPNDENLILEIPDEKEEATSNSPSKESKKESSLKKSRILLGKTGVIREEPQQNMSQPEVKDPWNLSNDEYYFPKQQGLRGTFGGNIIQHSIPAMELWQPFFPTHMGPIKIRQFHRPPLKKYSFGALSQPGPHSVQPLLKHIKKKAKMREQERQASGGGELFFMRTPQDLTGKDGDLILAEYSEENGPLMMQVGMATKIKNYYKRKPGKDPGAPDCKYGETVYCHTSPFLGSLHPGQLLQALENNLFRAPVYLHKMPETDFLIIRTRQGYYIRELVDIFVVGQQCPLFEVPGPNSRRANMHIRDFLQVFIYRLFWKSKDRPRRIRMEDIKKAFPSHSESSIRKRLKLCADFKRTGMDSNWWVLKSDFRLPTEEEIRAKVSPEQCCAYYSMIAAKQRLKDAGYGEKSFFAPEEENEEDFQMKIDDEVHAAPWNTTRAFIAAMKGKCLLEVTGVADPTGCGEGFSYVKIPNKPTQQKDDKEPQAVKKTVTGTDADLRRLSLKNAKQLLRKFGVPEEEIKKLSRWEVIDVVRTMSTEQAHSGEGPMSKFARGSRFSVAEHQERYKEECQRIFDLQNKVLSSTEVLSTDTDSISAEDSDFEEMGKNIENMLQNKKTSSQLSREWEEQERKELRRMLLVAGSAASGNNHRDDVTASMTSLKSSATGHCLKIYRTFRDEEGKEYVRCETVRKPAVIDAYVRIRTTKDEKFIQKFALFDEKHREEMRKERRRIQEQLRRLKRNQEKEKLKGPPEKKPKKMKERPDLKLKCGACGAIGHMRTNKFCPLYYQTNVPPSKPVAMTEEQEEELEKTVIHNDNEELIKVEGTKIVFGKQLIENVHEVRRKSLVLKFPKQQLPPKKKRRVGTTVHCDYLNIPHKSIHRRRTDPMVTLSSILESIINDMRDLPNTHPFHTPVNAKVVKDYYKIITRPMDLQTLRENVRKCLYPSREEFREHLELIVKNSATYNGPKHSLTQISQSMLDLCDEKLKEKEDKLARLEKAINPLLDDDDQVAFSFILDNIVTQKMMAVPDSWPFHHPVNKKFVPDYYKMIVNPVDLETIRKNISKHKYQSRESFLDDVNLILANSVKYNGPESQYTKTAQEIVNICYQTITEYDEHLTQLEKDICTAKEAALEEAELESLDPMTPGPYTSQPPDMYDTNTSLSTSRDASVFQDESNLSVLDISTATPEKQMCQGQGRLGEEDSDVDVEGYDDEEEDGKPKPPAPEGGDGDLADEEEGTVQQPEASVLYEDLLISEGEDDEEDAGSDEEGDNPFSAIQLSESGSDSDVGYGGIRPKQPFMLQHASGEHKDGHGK

[7] = target: T1, Bromodomain-containing protein 4 (Homo sapiens, UniProt O60885); experiment: Inhibition of human partial length BRD4 bromodomain 1 long isoform (N44 to E168 residues) expressed in Escherichia coli BL21 assessed as residual activity at 1 uM after 1 hr by qPCR method relative to control
[8] = target: T1, Bromodomain-containing protein 4; experiment: Inhibition of BRD4 in human TY82 cells assessed as downregulation of c-Myc mRNA expression after 24 hrs by RT-qPCR method; assay type: cell-based
[9] = target: Transcription intermediary factor 1-alpha (Homo sapiens) (UniProt O15164); experiment: Inhibition of human partial length TRIM24 (P790 to P977 residues) expressed in Escherichia coli BL21 assessed as residual activity at 1 uM after 1 hr by qPCR method relative to control
Sequence of Transcription intermediary factor 1-alpha (Homo sapiens) (O15164 whole entry, the tested form may be a part): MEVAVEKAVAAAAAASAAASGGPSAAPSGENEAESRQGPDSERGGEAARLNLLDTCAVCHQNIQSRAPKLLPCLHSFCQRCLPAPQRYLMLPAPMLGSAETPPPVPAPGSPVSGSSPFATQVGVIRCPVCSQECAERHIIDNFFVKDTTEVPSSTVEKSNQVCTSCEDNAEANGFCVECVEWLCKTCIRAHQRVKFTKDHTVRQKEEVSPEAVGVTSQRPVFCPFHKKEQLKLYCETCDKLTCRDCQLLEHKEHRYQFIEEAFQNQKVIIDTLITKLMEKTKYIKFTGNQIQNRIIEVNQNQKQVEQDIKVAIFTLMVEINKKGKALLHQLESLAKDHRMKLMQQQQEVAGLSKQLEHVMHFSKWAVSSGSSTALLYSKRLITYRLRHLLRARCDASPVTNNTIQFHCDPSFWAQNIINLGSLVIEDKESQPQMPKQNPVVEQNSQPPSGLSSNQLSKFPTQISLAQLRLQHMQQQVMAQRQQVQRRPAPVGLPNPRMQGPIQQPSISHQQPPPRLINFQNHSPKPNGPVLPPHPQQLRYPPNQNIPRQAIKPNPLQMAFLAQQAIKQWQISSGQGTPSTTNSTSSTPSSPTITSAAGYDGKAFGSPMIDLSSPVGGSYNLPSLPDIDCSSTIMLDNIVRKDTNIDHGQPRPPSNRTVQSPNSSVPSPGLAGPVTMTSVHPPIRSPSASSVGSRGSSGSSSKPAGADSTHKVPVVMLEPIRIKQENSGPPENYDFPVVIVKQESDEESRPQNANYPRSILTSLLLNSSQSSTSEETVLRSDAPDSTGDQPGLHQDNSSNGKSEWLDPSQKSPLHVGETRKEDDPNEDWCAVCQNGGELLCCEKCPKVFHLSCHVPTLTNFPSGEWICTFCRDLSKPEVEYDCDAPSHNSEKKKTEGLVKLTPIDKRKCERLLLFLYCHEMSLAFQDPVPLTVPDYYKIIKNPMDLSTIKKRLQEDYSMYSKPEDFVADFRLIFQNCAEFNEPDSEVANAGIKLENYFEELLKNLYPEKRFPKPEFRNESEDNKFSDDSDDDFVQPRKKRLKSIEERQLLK

[10] = target: Protein polybromo-1 (Homo sapiens) (UniProt Q86U86); experiment: Inhibition of human partial length PBRM1 bromodomain 5 (S645 to D766 residues) expressed in Escherichia coli BL21 assessed as residual activity at 1 uM after 1 hr by qPCR method relative to control
[11] = target: E3 ubiquitin-protein ligase TRIM33 (Homo sapiens) (UniProt Q9UPN9); experiment: Inhibition of human partial length TRIM33 (D882 to A1087 residues) expressed in Escherichia coli BL21 assessed as residual activity at 1 uM after 1 hr by qPCR method relative to control
[12] = target: Bromodomain-containing protein 3 (Homo sapiens) (UniProt Q15059); experiment: Inhibition of human partial length BRD3 bromodomain 1 (P24 to E144 residues) expressed in Escherichia coli BL21 assessed as residual activity at 1 uM after 1 hr by qPCR method relative to control
Sequence of Bromodomain-containing protein 3 (Homo sapiens) (Q15059 2-726 limits assumed): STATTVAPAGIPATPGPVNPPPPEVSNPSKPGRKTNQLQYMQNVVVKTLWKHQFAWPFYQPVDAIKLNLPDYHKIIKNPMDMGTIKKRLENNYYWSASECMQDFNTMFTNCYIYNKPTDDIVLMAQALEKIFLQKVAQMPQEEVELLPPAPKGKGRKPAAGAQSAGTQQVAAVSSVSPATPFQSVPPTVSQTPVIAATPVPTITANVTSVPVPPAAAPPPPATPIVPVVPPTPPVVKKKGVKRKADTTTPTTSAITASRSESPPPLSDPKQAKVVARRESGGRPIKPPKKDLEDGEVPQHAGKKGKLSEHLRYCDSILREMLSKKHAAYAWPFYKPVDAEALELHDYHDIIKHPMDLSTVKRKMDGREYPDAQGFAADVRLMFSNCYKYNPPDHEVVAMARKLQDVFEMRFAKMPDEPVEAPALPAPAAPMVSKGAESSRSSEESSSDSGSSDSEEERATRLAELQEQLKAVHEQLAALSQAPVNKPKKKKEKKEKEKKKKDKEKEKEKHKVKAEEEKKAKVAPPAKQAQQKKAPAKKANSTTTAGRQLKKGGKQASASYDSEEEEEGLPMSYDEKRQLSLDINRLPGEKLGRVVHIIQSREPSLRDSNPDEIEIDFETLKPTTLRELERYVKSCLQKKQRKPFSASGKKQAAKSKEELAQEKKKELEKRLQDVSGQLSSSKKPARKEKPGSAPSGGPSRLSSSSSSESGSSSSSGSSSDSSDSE

[13] = AUC (0 to t) in ICR (CD-1) mouse at 10 mg/kg, po; assay type: ADME, organism-based; details: in vivo
[14] = target: Bromodomain-containing protein 1 (Homo sapiens) (UniProt O95696); experiment: Inhibition of human partial length BRD1 (E556 to A688 residues) expressed in Escherichia coli BL21 assessed as residual activity at 1 uM after 1 hr by qPCR method relative to control
[15] = target: Bromodomain-containing protein 7 (Homo sapiens) (UniProt Q9NPI1); experiment: Inhibition of human partial length BRD7 (L125 to R254 residues) expressed in mammalian expression system assessed as residual activity at 1 uM after 1 hr by qPCR method relative to control
Sequence of Bromodomain-containing protein 7 (Homo sapiens) (Q9NPI1 whole entry, the tested form may be a part): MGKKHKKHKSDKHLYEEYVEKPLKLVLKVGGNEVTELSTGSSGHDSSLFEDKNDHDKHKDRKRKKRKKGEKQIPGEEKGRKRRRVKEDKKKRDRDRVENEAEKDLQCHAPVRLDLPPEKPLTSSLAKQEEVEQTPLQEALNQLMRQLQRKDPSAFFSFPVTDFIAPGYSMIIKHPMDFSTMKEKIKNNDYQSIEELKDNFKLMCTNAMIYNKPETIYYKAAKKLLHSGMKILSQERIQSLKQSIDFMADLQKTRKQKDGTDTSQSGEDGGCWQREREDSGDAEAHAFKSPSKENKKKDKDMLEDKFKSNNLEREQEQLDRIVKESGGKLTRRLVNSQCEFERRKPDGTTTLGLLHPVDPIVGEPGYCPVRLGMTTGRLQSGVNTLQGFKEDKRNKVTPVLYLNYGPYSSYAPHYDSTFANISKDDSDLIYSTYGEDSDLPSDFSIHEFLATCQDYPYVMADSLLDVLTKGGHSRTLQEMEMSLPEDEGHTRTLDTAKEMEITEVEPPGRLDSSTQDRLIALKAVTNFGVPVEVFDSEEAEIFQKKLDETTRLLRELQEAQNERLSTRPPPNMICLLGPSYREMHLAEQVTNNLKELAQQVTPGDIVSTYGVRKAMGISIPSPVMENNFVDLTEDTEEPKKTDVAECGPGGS

[16] = target: SWI/SNF-related matrix-associated actin-dependent regulator of chromatin subfamily A member 4 (Homo sapiens) (UniProt P51532); experiment: Inhibition of human partial length SMARCA4 (A1448 to S1575 residues) expressed in Escherichia coli BL21 assessed as residual activity at 1 uM after 1 hr by qPCR method relative to control
[17] = target: Bromodomain-containing protein 3 (Homo sapiens) (UniProt Q15059); experiment: Inhibition of human partial length BRD3 bromodomain 2 (G306 to P416 residues) expressed in Escherichia coli BL21 assessed as residual activity at 1 uM after 1 hr by qPCR method relative to control
[18] = target: Bromodomain-containing protein 9 (Homo sapiens) (UniProt Q9H8M2); experiment: Inhibition of human partial length BRD9 (R130 to V259 residues) expressed in Escherichia coli BL21 assessed as residual activity at 1 uM after 1 hr by qPCR method relative to control
[19] = target: T1, Bromodomain-containing protein 4; experiment: Inhibition of BRD4 in human TY82 cells assessed as downregulation of c-Myc protein expression at 0.2 to 1 uM after 24 hrs by Western blot method; assay type: cell-based
[20] = target: ATPase family AAA domain-containing protein 2B (Homo sapiens) (UniProt Q9ULI0); experiment: Inhibition of human partial length ATAD2B (Q955 to R1082 residues) expressed in Escherichia coli BL21 assessed as residual activity at 1 uM after 1 hr by qPCR method relative to control
[21] = target: Bromodomain adjacent to zinc finger domain protein 2B (Homo sapiens) (UniProt Q9UIF8); experiment: Inhibition of human partial length BAZ2B (S2054 to S2168 residues) expressed in Escherichia coli BL21 assessed as residual activity at 1 uM after 1 hr by qPCR method relative to control
[22] = target: T1, Bromodomain-containing protein 4; experiment: Inhibition of human partial length BRD4 bromodomain 2 long isoform (K333 to E460 residues) expressed in Escherichia coli BL21 assessed as residual activity at 1 uM after 1 hr by qPCR method relative to control
[23] = target: T1, Bromodomain-containing protein 4; experiment: Inhibition of BRD4 in human TY82 cells assessed as downregulation of c-Myc mRNA expression at 1 uM after 24 hrs by RT-qPCR method relative to control; assay type: cell-based
[24] = target: Bromodomain-containing protein 2 (Homo sapiens) (UniProt P25440); experiment: Inhibition of human partial length BRD2 bromodomain 2 isoform 1 (E348 to D455 residues) expressed in Escherichia coli BL21 assessed as residual activity at 1 uM after 1 hr by qPCR method relative to control
Sequence of Bromodomain-containing protein 2 (Homo sapiens) (P25440 whole entry, looked up, the tested form may be a part, canonical isoform): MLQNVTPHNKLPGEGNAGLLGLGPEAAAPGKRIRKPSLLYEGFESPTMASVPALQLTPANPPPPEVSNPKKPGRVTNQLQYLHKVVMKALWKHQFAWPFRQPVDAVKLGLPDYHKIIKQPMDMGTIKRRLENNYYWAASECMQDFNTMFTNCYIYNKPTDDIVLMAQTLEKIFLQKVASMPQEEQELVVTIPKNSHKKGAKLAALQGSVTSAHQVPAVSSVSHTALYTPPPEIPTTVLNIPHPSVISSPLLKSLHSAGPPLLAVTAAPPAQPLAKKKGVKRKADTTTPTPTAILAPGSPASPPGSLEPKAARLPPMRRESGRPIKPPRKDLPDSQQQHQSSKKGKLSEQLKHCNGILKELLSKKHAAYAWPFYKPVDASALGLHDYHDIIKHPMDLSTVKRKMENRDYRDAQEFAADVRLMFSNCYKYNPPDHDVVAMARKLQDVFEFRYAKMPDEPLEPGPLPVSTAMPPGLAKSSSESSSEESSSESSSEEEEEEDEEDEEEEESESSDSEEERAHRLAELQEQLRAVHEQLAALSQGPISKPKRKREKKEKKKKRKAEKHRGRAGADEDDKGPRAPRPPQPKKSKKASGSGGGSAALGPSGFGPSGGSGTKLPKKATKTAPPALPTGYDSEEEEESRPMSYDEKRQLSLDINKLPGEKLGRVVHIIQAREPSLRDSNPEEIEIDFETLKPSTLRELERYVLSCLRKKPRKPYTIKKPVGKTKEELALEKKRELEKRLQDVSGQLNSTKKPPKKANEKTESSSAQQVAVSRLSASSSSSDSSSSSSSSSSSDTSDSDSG

[25] = target: Bromodomain-containing protein 2 (Homo sapiens) (UniProt P25440); experiment: Inhibition of human partial length BRD2 bromodomain 1 long isoform (K71 to N194 residues) expressed in Escherichia coli BL21 assessed as residual activity at 1 uM after 1 hr by qPCR method relative to control
[26] = target: CREB-binding protein (Homo sapiens) (UniProt Q92793); experiment: Inhibition of human partial length CREBBP (R1081 to G1197 residues) expressed in Escherichia coli BL21 assessed as residual activity at 1 uM after 1 hr by qPCR method relative to control

Cc1ccc([C@H](C)Nc2ccc3c(c2)N(C2CC2)[C@H](C)C(=O)N3C)c(C)c1
Activity [1]: 96%
Activity [2]: 100%
Activity [3]: 73%
Activity [4]: 3.1%
AUC(0-inf) [5]: 1690 ng·h/mL
Activity [6]: 88%
Activity [7]: 1.7%
inhibition [8]: Dose-dependent effect
Activity [9]: 80%
Activity [10]: 94%
Activity [11]: 99%
Activity [12]: 0.1%
AUC(0-t) [13]: 1680 ng·h/mL
Activity [14]: 57%
Activity [15]: 97%
Activity [16]: 95%
Activity [17]: 0.3%
Activity [18]: 77%
inhibition [19]: Active
Activity [20]: 100%
Activity [21]: 82%
Activity [22]: 0.05%
inhibition [23]: > 60%
Activity [24]: 0%
Activity [25]: 0.9%
Activity [26]: 67%
